Test results: patent US8029770B2 (Rutgers, The State University, priority 2003, dated 2011)
Entries after “also recorded” stand apart in the source; their conditions may differ. Where two headings read alike, the source gives them in different places. Marks after values point to notes of the source that are not given here.

Experiments:
[1] = tested on: UVB-induced skin lesions in SKH-1 mice; experiment: Prevention of UVB-induced skin (sunburn) lesions, sunscreen effect; assay type: in vivo, mouse; conditions: 4.8% caffeine or 8.0% caffeine sodium benzoate (24 μmoles) in 100 mg DERMABASE 30 minutes before UVB 180 mJ/cm^2 on two consecutive days (FIG. 2)
Procedure: The areas (mm^2) and the intensity of red color in UVB-induced skin lesion were estimated semi-quantitatively 5 days after first UVB treatment. The lesion index were calculated as the lesion area multiplied by the arbitrary intensity: 0, no lesion; 1 barely detectable red lesion; 2 moderate red lesion, and 3, bright red lesion.
Outdoor occupational human exposure to UVB or a sunbathing exposure in the summer has been reported to range from 50-100 mJ/cm^2 per day (Larko, et al. (1983) Clin. Exp. Dermatol. 8:279-285; Diffey (1991) Phys. Med. Biol. 36:299-328).

[2] = Weight of mouse during topical treatment of UVB-pretreated high risk SKH-1 mice; assay type: in vivo
Procedure: Female SKH-1 mice were treated with 30 mJ/cm^2 of UVB twice a week for 20 weeks.

[3] = tested on: apoptotic sunburn cells in the epidermis of SKH-1 mice; experiment: UVB-induced apoptotic sunburn cells in the epidermis of SKH-1 mice after topical application; assay type: in vivo, mouse; conditions: for Percent Apoptotic Sunburn Cells, Non-UVB Treated: no UVB
Procedure: Chemicals and Animals. […] Female SKH-1 hairless mice (6 to 7 weeks old) were purchased from the Charles River Breeding Laboratories, and the animals were kept in an animal facility for at least one week before use at 7 to 8 weeks of age. Mice were given water and PURINA® Laboratory CHOW® 5001 diet from Ralston-Purina (St. […] For the analysis conducted herein, 5 mice were used per group. Treatment of Mice with UVB. […] The radiation was further calibrated with a model IL-1700 research radiometer/photometer (International Light, Newburyport, Mass.). Measurement of apoptotic sunburn cells. Identification of apoptoic sunburn cells was based morphologically on cell shrinkage and nuclear condensation due to fragmentation of the cells. […] Six hours after UVB, the animals were sacrificed and apoptotic sunburn cells in the epidermis were determined morphologically. […] Six hours after UVB, the animals were sacrificed and apoptotic sunburn cells in the epidermis were determined morphologically. […] Acetone Formulation. […] Six hours after UVB, the animals were sacrificed and apoptotic sunburn cells in the epidermis were determined morphologically. […] […] Formulations. […] Six hours after UVB the animals were sacrificed and apoptotic sunburn cells in the epidermis were determined morphologically. […] Six hours after UVB the animals were sacrificed and apoptotic sunburn cells in the epidermis were determined morphologically.

cyclin B1 = experiment: Epidermal cyclin B1 in UVB-treated mice, western blot and immunohistochemistry; assay type: in vivo, mouse
[4] = tested on: UVB-induced skin tumors in high risk SKH-1 mice
phospho-Chk2 (Ser387) = experiment: Epidermal phospho-Chk2 (Ser387) in UVB-treated mice, western blot; assay type: in vivo, mouse; conditions: topical immediately after UVB 30 mJ/cm2; 6 hours

Question: What does the source list for `Cn1c(=O)c2c(ncn2C)n(C)c1=O.O=C([O-])c1ccccc1.[Na+]` [Caffeine Sodium Benzoate, caffeine sodium benzoate]?
Answer: formation of UVB-induced sunburn (skin) lesions [1]: significantly prevented skin lesion formation; also recorded: inhibited the formation of sunburn lesions; also recorded: even more dramatic inhibitory effect; Weight of mouse ([2]; week 0, 2% CSB in DERMABASE): 30.5 ± 0.5 g; Weight of mouse ([2]; week 0, 6% CSB in DERMABASE): 30.4 ± 0.6 g; Weight of mouse ([2]; week 5, 2% CSB in DERMABASE): 30.3 ± 0.4 g; Weight of mouse ([2]; week 5, 6% CSB in DERMABASE): 29.9 ± 0.5 g; Weight of mouse ([2]; week 7, 2% CSB in DERMABASE): 30.6 ± 0.4 g; Weight of mouse ([2]; week 7, 6% CSB in DERMABASE): 29.8 ± 0.5 g; Weight of mouse ([2]; week 9, 2% CSB in DERMABASE): 30.6 ± 0.4 g; Weight of mouse ([2]; week 9, 6% CSB in DERMABASE): 30.0 ± 0.5 g; Weight of mouse ([2]; week 11, 2% CSB in DERMABASE): 30.7 ± 0.5 g; Weight of mouse ([2]; week 11, 6% CSB in DERMABASE): 30.2 ± 0.5 g; Percent Sunburn Cells, UVB ([3]; 6.2 μmole (each) in 100 μL acetone:water (9:1) immediately after UVB 30 mJ/cm^2 and at 30 and 120 min, 6 h, mean ± S.E.): 1.10 ± 0.10%; Percent Apoptotic Sunburn Cells ([3]; 6.2 μmole in 100 μL acetone right after UVB 30 mJ/cm^2 and at 30 and 120 min, 6 h after UVB, mean ± S.E.): 1.089 ± 0.080^a %; Percent Sunburn Cells, UVB ([3]; 100 mg formulation (2.4% caffeine or 4.0% caffeine sodium benzoate, 12.4 μmole, in DERMABASE; or commercial product) immediately after UVB 30 mJ/cm^2, 6 h): 2.33 ± 0.36^a %; Percent Sunburn Cells, UVB ([3]; 1.0% CSB in 100 mg DERMABASE immediately after UVB 30 mJ/cm^2, 6 h): 0.74 ± 0.20^a %; Percent Sunburn Cells, UVB ([3]; 2.0% CSB in 100 mg DERMABASE immediately after UVB 30 mJ/cm^2, 6 h): 0.99 ± 0.20^a %; Percent Sunburn Cells, UVB ([3]; 4.0% CSB in 100 mg DERMABASE immediately after UVB 30 mJ/cm^2, 6 h): 1.22 ± 0.19^a %; Percent Sunburn Cells, UVB ([3]; 6.0% CSB in 100 mg DERMABASE immediately after UVB 30 mJ/cm^2, 6 h): 1.67 ± 0.31^a %; Percent Sunburn Cells, UVB ([3]; 8.0% CSB in 100 mg DERMABASE immediately after UVB 30 mJ/cm^2, 6 h): 1.75 ± 0.32^a %; enhancement of UVB-induced apoptosis in the epidermis, applied in DERMABASE ([3]; DERMABASE vehicle, equimolar amounts (Table 4)): to a greater extent than equimolar amounts of caffeine; Percent Apoptotic Sunburn Cells ([3]; Exp-1, 6.2 μmole in acetone:water (9:1) x3 after UVB 30 mJ/cm^2, 6 h): 1.09 ± 0.08%; Percent Apoptotic Sunburn Cells ([3]; Exp-2, 3.1 μmole in acetone:water (9:1) x3 after UVB 30 mJ/cm^2, 6 h): 0.45 ± 0.07%; Percent Apoptotic Sunburn Cells, Non-UVB Treated ([3]; Exp-2, 3.1 μmole): 0.02 ± 0.01%; Percent Apoptotic Sunburn Cells ([3]; Exp-2, 6.2 μmole in acetone:water (9:1) x3 after UVB 30 mJ/cm^2, 6 h): 0.68 ± 0.06%; Percent Apoptotic Sunburn Cells, Non-UVB Treated ([3]; Exp-2, 6.2 μmole): 0.03 ± 0.01%; % Induction ([3]; Table 1, vs acetone group, 6.2 μmole x3 after UVB 30 mJ/cm^2, 6 h): 434%; % Induction ([3]; Table 3 Exp-1, 6.2 μmole): 445%; % Induction ([3]; Table 3 Exp-2, 3.1 μmole): 114%; % Induction ([3]; Table 3 Exp-2, 6.2 μmole): 224%; % Induction ([3]; Table 4, 1.0% CSB in DERMABASE): 270%; % Induction ([3]; Table 4, 2.0% CSB in DERMABASE): 395%; % Induction ([3]; Table 4, 4.0% CSB in DERMABASE): 510%; % Induction ([3]; Table 4, 6.0% CSB in DERMABASE): 735%; % Induction ([3]; Table 4, 8.0% CSB in DERMABASE): 775%; effect on non-UVB-treated cells ([3]; no UVB (Table 3)): unaffected; percent of cyclin B1 positive cells in the epidermis (cyclin B1; UVB-treated mice, frozen sections, immunohistochemical): substantially enhanced; effect on cyclin B1 positive cells in the absence of UVB (cyclin B1; no UVB): little or no effect; level of epidermal cyclin B1 vs UVB alone (cyclin B1; topical immediately after UVB 30 mJ/cm2, western blot): increased substantially; No. of large tumors (diameter > 5 mm) ([4]; week 0, 2% CSB in DERMABASE): 0; Tumor volume per mouse (all mice) (mm^3) ([4]; week 0, 2% CSB in DERMABASE): 0 mm^3; Tumor volume per tumor (mm^3) ([4]; week 0, 2% CSB in DERMABASE): 0 mm^3; Tumors per mouse ([4]; week 0, 2% CSB in DERMABASE): 0; No. of large tumors (diameter > 5 mm) ([4]; week 0, 6% CSB in DERMABASE): 0; Tumor volume per mouse (all mice) (mm^3) ([4]; week 0, 6% CSB in DERMABASE): 0 mm^3; Tumor volume per tumor (mm^3) ([4]; week 0, 6% CSB in DERMABASE): 0 mm^3; Tumors per mouse ([4]; week 0, 6% CSB in DERMABASE): 0; No. of large tumors (diameter > 5 mm) ([4]; week 5, 2% CSB in DERMABASE): 0; Tumor volume per mouse (all mice) (mm^3) ([4]; week 5, 2% CSB in DERMABASE): 0.1 ± 0.1 mm^3; Tumor volume per tumor (mm^3) ([4]; week 5, 2% CSB in DERMABASE): 0.5 ± 0.0 mm^3; Tumors per mouse ([4]; week 5, 2% CSB in DERMABASE): 0.2 ± 0.1; No. of large tumors (diameter > 5 mm) ([4]; week 5, 6% CSB in DERMABASE): 0; Tumor volume per mouse (all mice) (mm^3) ([4]; week 5, 6% CSB in DERMABASE): 0.0 ± 0.0 mm^3; Tumor volume per tumor (mm^3) ([4]; week 5, 6% CSB in DERMABASE): 0.5 ± 0.0 mm^3; Tumors per mouse ([4]; week 5, 6% CSB in DERMABASE): 0.0 ± 0.0; No. of large tumors (diameter > 5 mm) ([4]; week 7, 2% CSB in DERMABASE): 0; Tumor volume per mouse (all mice) (mm^3) ([4]; week 7, 2% CSB in DERMABASE): 0.6 ± 0.4 mm^3; Tumor volume per tumor (mm^3) ([4]; week 7, 2% CSB in DERMABASE): 1.5 ± 0.5 mm^3; Tumors per mouse ([4]; week 7, 2% CSB in DERMABASE): 0.4 ± 0.2; No. of large tumors (diameter > 5 mm) ([4]; week 7, 6% CSB in DERMABASE): 0; Tumor volume per mouse (all mice) (mm^3) ([4]; week 7, 6% CSB in DERMABASE): 0.1 ± 0.1 mm^3; Tumor volume per tumor (mm^3) ([4]; week 7, 6% CSB in DERMABASE): 0.5 ± 0.0 mm^3; Tumors per mouse ([4]; week 7, 6% CSB in DERMABASE): 0.2 ± 0.1; No. of large tumors (diameter > 5 mm) ([4]; week 9, 2% CSB in DERMABASE): 0; Tumor volume per mouse (all mice) (mm^3) ([4]; week 9, 2% CSB in DERMABASE): 1.0 ± 0.5 mm^3; Tumor volume per tumor (mm^3) ([4]; week 9, 2% CSB in DERMABASE): 1.9 ± 0.9 mm^3; Tumors per mouse ([4]; week 9, 2% CSB in DERMABASE): 0.5 ± 0.2; No. of large tumors (diameter > 5 mm) ([4]; week 9, 6% CSB in DERMABASE): 0; Tumor volume per mouse (all mice) (mm^3) ([4]; week 9, 6% CSB in DERMABASE): 0.3 ± 0.2 mm^3; Tumor volume per tumor (mm^3) ([4]; week 9, 6% CSB in DERMABASE): 0.9 ± 0.4 mm^3; Tumors per mouse ([4]; week 9, 6% CSB in DERMABASE): 0.3 ± 0.1; No. of large tumors (diameter > 5 mm) ([4]; week 11, 2% CSB in DERMABASE): 0; Tumor volume per mouse (all mice) (mm^3) ([4]; week 11, 2% CSB in DERMABASE): 1.8 ± 0.2 mm^3; Tumor volume per tumor (mm^3) ([4]; week 11, 2% CSB in DERMABASE): 2.1 ± 0.6 mm^3; Tumors per mouse ([4]; week 11, 2% CSB in DERMABASE): 0.9 ± 0.3; No. of large tumors (diameter > 5 mm) ([4]; week 11, 6% CSB in DERMABASE): 0; Tumor volume per mouse (all mice) (mm^3) ([4]; week 11, 6% CSB in DERMABASE): 1.0 ± 0.4 mm^3; Tumor volume per tumor (mm^3) ([4]; week 11, 6% CSB in DERMABASE): 2.0 ± 0.5 mm^3; Tumors per mouse ([4]; week 11, 6% CSB in DERMABASE): 0.5 ± 0.2; UVB-induced increase in the level of phospho-Chk2 (Ser387) (phospho-Chk2 (Ser387)): inhibited
